Assays:
[1] = target: hNET (Homo sapiens (Human), UniProt P23975); assay: NET radioligand binding assay ([3H]nisoxetine, HEK-293 membranes); conditions: recombinant HEK-293 membranes, [3H]nisoxetine; read-out: Binding Affinity (IC50, nM) NET
Method: (§1) The medium was removed from the flasks and the cells rinsed with HBSS without Ca and without Mg. The cells were then incubated for 5-10 minutes in 10 mM Tris-Cl, pH 7.5, 5 mM EDTA before the cells were lifted with a combination of pipetting and scraping, as needed. The cell suspension was collected into centrifuge bottles and homogenized for 30 seconds with a Polytron homogenizer. The suspension was centrifuged for 30 minutes at 32,000×g, 4° C. The supernatant was decanted and the pellet resuspended and homogenized in 50 mM Tris-Cl, pH 7.5, 1 mM EDTA for 10 seconds. The suspension was then centrifuged again for 30 minutes at 32,000×g, 4° C. The supernatant was decanted and the pellet resuspended in 50 mM Tris-Cl, pH 7.5, 1 mM EDTA and briefly homogenized. A Bradford assay (Bio-rad) was performed and the membrane preparation diluted to 2 mg/ml with 50 mM Tris-Cl, pH 7.5, 1 mM EDTA. Aliquots were prepared, and then frozen and stored at −80° C.
Compounds were dissolved in 100% DMSO at a concentration 100 times the desired highest assay concentration, serially diluted 1:3 in 100% DMSO, and 1.0 μl/well of each solution was dispensed to a Nunc polypropylene, round bottom, 384-well plate. […] 50 μl/well of a 2× membrane preparation (0.4 mg/ml in 50 mM Tris-Cl, pH 7.5, 120 mM NaCl, 5 mM KCl) and 50 μl/well of a 2× radioligand solution (4 nM [^3H]nisoxetine in 50 mM Tris-Cl, pH 7.5, 120 mM NaCl, 5 mM KCl) were added to the well and the reaction incubated for 1 hour at room temperature. The contents of the assay plate were then transferred to a Millipore MultiscreenHTS GF/B filter plate which was pretreated with 0.5% PEI for at least one hour. The plate was vacuum filtered and washed with 7 washes of 100 μl/well 50 mM Tris-Cl, pH 7.5, 120 mM NaCl, 5 mM KCl chilled to 4° C. The filtration and washing were completed in less than 90 seconds. The plates were air-dried overnight, 12 μl/well of MicroScint scintillation fluid added, and the plates counted in a Trilux.
(§2) Each plate was run in triplicate, and the concentration response curve thus generated was fit using the four-parameter dose response equation, Y=Bottom+(Top-Bottom)/(1+10^((Log IC50−X)*HillSlope)) in order to determine the IC50 value for each compound. The radioligand concentration chosen for each assay corresponds to the Kd concentration determined through saturation binding analysis for each assay.

[2] = target: hSERT (Homo sapiens (Human), UniProt P31645); assay: SERT radioligand binding assay ([125I]RTI-55, HEK-293 membranes); conditions: recombinant HEK-293 membranes, [125I]RTI-55; read-out: Binding Affinity (IC50, nM) SERT
Method: as §1
Compounds were dissolved in 100% DMSO at a concentration 100 times the desired highest assay concentration, serially diluted 1:3 in 100% DMSO, and 0.4 μl/well of each solution was dispensed to a Nunc polypropylene, round bottom, 384-well plate. […] The contents of the assay plate were then transferred to a Millipore MultiscreenHTS GF/B filter plate which was pretreated with 0.5% PEI for at least one hour. The plate was vacuum filtered and washed with 7 washes of […] 50 mM Tris-Cl, pH 7.5, 120 mM NaCl, 5 mM KCl chilled to 4° C. The filtration and washing were completed in less than 90 seconds. The plates were air-dried overnight, 12 μl/well of MicroScint scintillation fluid added, and the plates counted in a Trilux.
as §2

[3] = target: hDAT (Homo sapiens (Human), UniProt Q01959); assay: DAT radioligand binding assay ([125I]RTI-55, HEK-293 membranes); conditions: recombinant HEK-293 membranes, [125I]RTI-55; read-out: Binding Affinity (IC50, nM) DAT
Method: as §1, with “Recombinant HEK-293 cells expressing either the hSERT, hDAT, or hNET proteins were harvested from T-175 flasks as follows. The medium” for “The medium”
Compounds were dissolved in 100% DMSO at a concentration 100 times the desired highest assay concentration, serially diluted 1:3 in 100% DMSO, and 0.4 μl/well of each solution was dispensed to a Nunc polypropylene, round bottom, 384-well plate. […] 20 ul/well of a 2× membrane preparation (12.5 μg/ml in 30 mM sodium phosphate buffer, pH 7.9 at 4° C.) and 20 μl/well of a 2× radioligand solution (250 pM [^125I]RTI-55 in 30 mM sodium phosphate buffer, pH 7.9 at 4° C.) were added to the well and the reaction incubated for 1 hour at room temperature. The contents of the assay plate were then transferred to a Millipore MultiscreenHTS GF/B filter plate which was pretreated with 0.5% PEI for at least one hour. The plate was vacuum-filtered and washed with 7 washes of 100 μl/well 50 mM Tris-Cl, pH 7.5, 120 mM NaCl, 5 mM KCl chilled to 4° C. The filtration and washing were completed in less than 90 seconds. The plates were air-dried overnight, 12 μl/well of MicroScint scintillation fluid added, and the plates counted in a Trilux.
as §2

Sequence of hSERT (P31645 whole entry): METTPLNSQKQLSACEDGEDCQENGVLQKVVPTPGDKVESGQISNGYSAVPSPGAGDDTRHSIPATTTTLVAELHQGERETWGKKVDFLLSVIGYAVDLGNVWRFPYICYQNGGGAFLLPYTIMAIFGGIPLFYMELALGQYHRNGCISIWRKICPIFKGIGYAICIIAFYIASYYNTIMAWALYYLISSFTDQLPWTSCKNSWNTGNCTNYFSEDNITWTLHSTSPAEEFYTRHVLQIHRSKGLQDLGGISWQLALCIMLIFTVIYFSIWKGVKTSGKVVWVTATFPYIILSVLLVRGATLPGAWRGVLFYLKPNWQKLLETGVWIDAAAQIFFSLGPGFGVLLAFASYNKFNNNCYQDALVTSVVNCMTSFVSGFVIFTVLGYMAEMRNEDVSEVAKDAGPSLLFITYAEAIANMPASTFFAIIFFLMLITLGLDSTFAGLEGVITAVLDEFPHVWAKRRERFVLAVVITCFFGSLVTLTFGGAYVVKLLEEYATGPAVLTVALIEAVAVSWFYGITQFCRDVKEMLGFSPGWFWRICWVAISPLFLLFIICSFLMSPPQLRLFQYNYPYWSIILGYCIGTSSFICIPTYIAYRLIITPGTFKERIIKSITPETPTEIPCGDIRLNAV
Sequence of hDAT (Q01959 whole entry): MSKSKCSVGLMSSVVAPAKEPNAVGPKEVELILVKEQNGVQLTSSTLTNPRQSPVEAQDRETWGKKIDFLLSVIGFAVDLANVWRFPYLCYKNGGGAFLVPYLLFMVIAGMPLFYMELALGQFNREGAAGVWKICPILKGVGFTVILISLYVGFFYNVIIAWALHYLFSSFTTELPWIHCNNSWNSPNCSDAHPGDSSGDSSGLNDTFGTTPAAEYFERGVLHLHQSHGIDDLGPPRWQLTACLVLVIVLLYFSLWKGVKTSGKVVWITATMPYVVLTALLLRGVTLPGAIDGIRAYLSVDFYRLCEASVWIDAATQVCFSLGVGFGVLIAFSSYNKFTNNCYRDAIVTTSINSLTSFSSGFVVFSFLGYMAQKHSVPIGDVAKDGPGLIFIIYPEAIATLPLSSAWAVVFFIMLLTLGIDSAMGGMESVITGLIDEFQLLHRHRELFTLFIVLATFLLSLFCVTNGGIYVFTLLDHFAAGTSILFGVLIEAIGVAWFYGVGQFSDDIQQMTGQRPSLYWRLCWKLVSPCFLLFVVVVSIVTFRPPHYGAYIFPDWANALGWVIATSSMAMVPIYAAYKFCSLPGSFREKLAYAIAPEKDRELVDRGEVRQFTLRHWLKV
Sequence of hNET (P23975 whole entry): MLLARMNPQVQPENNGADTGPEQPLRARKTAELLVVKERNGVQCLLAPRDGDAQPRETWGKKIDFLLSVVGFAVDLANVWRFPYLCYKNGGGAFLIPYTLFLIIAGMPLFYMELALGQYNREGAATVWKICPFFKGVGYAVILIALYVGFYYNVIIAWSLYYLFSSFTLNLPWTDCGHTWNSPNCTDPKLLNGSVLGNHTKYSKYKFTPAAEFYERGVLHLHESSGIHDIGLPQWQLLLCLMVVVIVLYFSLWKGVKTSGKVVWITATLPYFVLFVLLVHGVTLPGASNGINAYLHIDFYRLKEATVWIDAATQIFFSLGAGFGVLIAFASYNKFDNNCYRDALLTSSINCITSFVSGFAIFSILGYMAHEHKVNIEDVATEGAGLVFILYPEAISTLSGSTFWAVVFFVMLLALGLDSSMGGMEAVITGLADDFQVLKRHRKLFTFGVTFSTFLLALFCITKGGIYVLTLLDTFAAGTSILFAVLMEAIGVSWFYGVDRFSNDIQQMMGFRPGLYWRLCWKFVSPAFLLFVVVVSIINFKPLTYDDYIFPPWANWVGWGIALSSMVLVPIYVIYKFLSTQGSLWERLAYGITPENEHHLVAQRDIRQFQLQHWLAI

Q: How did the IC50 [1] turn out when `COc1ccc2c(c1)CN1CCC2(c2ccc(Cl)cc2)C1` (racemic) [Example 1, rac-5-(4-chlorophenyl)-8-methoxy-2,5-methano-2,3,4,5-tetrahydro-1H-benzo[c]azepine] was run?
A: 675 nM

Q: What about the IC50 [2] of the same molecule?
A: 74.2 nM

Q: With `Oc1ccc2c(c1)CN1CCC2(c2ccc(Cl)cc2)C1` (racemic) [Example 2, rac-5-(4-chlorophenyl)-2,5-methano-2,3,4,5-tetrahydro-1H-benzo[c]azepin-8-ol] as the molecule, how does the IC50 [2] read?
A: 126 nM

Q: What does the source list for `FC(F)(F)c1nnc2ccc(-c3ccc4c(c3)CN3CCC4(c4ccc(Cl)cc4)C3)cn12` (racemic) [Example 4, rac-5-(4-chlorophenyl)-2,5-methano-8-(3-(trifluoromethyl)-[1,2,4]triazolo[4,3-a]pyridin-6-yl)-2,3,4,5-tetrahydro-1H-benzo[c]azepine]?
A: IC50 [1]: 70.5 nM; IC50 [3]: 603 nM

Q: `FC(F)(F)c1ccc(-c2ccc3c(c2)CN2CCC3(c3ccc(Cl)cc3)C2)nn1` (racemic) [Example 5, rac-5-(4-chlorophenyl)-2,5-methano-8-(6-(trifluoromethyl)pyridazin-3-yl)-2,3,4,5-tetrahydro-1H-benzo[c]azepine] was tested. Which IC50 [1] did it give?
A: 274 nM

Q: And the IC50 [2]?
A: 10.1 nM

Q: And the IC50 [3]?
A: 74.2 nM

Q: For `N#Cc1ccc(-c2ccc3c(c2)CN2CCC3(c3ccc(Cl)cc3)C2)cc1` (racemic) [Example 8, rac-4-(5-(4-chlorophenyl)-2,5-methano-2,3,4,5-tetrahydro-1H-benzo[c]azepin-8-yl)benzonitrile], which IC50 [1] is on record?
A: 1210 nM

Q: And the IC50 [2]?
A: 16.6 nM

Q: What about the IC50 [3] of the same molecule?
A: 450 nM

Q: What does the source list for `CS(=O)(=O)c1ccc(-c2ccc3c(c2)CN2CCC3(c3ccc(Cl)cc3)C2)cc1` (racemic) [Example 9, rac-5-(4-chlorophenyl)-2,5-methano-8-(4-(methylsulfonyl)phenyl)-2,3,4,5-tetrahydro-1H-benzo[c]azepine]?
A: IC50 [1]: 303 nM; IC50 [2]: 23.5 nM; IC50 [3]: 435 nM

Q: For `Clc1ccc(C23CCN(Cc4cc(-c5ccc6ncnn6c5)ccc42)C3)cc1` (single isomer, unassigned) [3(+), 8-([1,2,4]triazolo[1,5-a]pyridin-6-yl)-5-(4-chlorophenyl)-2,5-methano-2,3,4,5-tetrahydro-1H-benzo[c]azepine], which IC50 [1] is on record?
A: 817 nM

Q: What about the IC50 [2] of the same molecule?
A: 9.4 nM

Q: And the IC50 [3]?
A: 340 nM

Q: `Clc1ccc(C23CCN(Cc4cc(-c5ccc6ncnn6c5)ccc42)C3)cc1` (single isomer, unassigned) [3(−), 8-([1,2,4]triazolo[1,5-a]pyridin-6-yl)-5-(4-chlorophenyl)-2,5-methano-2,3,4,5-tetrahydro-1H-benzo[c]azepine] was tested. Which IC50 [1] did it give?
A: 443 nM

Q: And the IC50 [2]?
A: 5.2 nM

Q: And the IC50 [3]?
A: 141 nM

Q: For `FC(F)Oc1ccc(-c2ccc3c(c2)CN2CCC3(c3ccc(Cl)cc3)C2)nn1` (single isomer, unassigned) [6(+), 5-(4-chlorophenyl)-8(6-(difluoromethoxy)pyridazin-3-yl)-2,5-methano-2,3,4,5-tetrahydro-1H-benzo[c]azepine], which IC50 [1] is on record?
A: 1170 nM

Q: What about the IC50 [2] of the same molecule?
A: 19.3 nM

Q: What about the IC50 [3] of the same molecule?
A: 1060 nM

Q: How did the IC50 [1] turn out when `Oc1ccc(-c2ccc3c(c2)CN2CCC3(c3ccc(Cl)cc3)C2)nn1` (single isomer, unassigned) [7(+), 6-(5-(4-chlorophenyl)-2,5-methano-2,3,4,5-tetrahydro-1H-benzo[c]azepin-8-yl)pyridazin-3-ol] was run?
A: 674 nM

Q: What about the IC50 [2] of the same molecule?
A: 62.5 nM

Q: And the IC50 [3]?
A: 148 nM

Q: `Clc1ccc(C23CCN(Cc4cc(-c5ccc6ncnn6c5)ccc42)C3)cc1Cl` (single isomer, unassigned) [10(+), 8-([1,2,4]triazolo[1,5-a]pyridin-6-yl)-5-(3,4-dichlorophenyl)-2,5-methano-2,3,4,5-tetrahydro-1H-benzo[c]azepine] was tested. Which IC50 [1] did it give?
A: 242 nM

Q: What about the IC50 [2] of the same molecule?
A: 4.6 nM

Q: What about the IC50 [3] of the same molecule?
A: 49.5 nM

Q: What does the source list for `Clc1ccc(C23CCN(Cc4cc(-c5ccc6ncnn6c5)ccc42)C3)cc1Cl` (single isomer, unassigned) [10(−), 8-([1,2,4]triazolo[1,5-a]pyridin-6-yl)-5-(3,4-dichlorophenyl)-2,5-methano-2,3,4,5-tetrahydro-1H-benzo[c]azepine]?
A: IC50 [1]: 73.7 nM; IC50 [2]: 5.6 nM; IC50 [3]: 37.5 nM

Q: `O=c1[nH]c2ccc(-c3ccc4c(c3)CN3CCC4(c4ccc(Cl)c(Cl)c4)C3)cc2o1` (single isomer, unassigned) [11(+), 8-(2-oxo-2,3-dihydrobenzo[d]oxazol-6-yl)-5-(3,4-dichlorophenyl)-2,5-methano-2,3,4,5-tetrahydro-1H-benzo[c]azepine] was tested. Which IC50 [1] did it give?
A: 369 nM

Q: And the IC50 [2]?
A: 3.5 nM

Q: What about the IC50 [3] of the same molecule?
A: 50 nM

Q: How did the IC50 [1] turn out when `O=c1[nH]c2ccc(-c3ccc4c(c3)CN3CCC4(c4ccc(Cl)c(Cl)c4)C3)cc2o1` (single isomer, unassigned) [11(−), 8-(2-oxo-2,3-dihydrobenzo[d]oxazol-6-yl)-5-(3,4-dichlorophenyl)-2,5-methano-2,3,4,5-tetrahydro-1H-benzo[c]azepine] was run?
A: 92.4 nM

Q: And the IC50 [2]?
A: 3.9 nM

Q: What about the IC50 [3] of the same molecule?
A: 19.6 nM

Q: With `Fc1ccc(C23CCN(Cc4cc(-c5ccc6ncnn6c5)ccc42)C3)cc1Cl` (single isomer, unassigned) [55(+), 8-([1,2,4]triazolo[1,5-a]pyridin-6-yl)-5-(3-chloro-4-fluorophenyl)-2,5-methano-2,3,4,5-tetrahydro-1H-benzo[c]azepine] as the molecule, how does the IC50 [1] read?
A: 956 nM

Q: And the IC50 [2]?
A: 18.6 nM

Q: What about the IC50 [3] of the same molecule?
A: 121 nM

Q: Which IC50 [1] does the source give for `Fc1ccc(C23CCN(Cc4cc(-c5ccc6ncnn6c5)ccc42)C3)cc1Cl` (single isomer, unassigned) [55(−), 8-([1,2,4]triazolo[1,5-a]pyridin-6-yl)-5-(3-chloro-4-fluorophenyl)-2,5-methano-2,3,4,5-tetrahydro-1H-benzo[c]azepine] here?
A: 175 nM

Q: And the IC50 [2]?
A: 2.2 nM

Q: What about the IC50 [3] of the same molecule?
A: 35.3 nM

Q: With `Fc1ccc(C23CCN(Cc4cc(-c5ccc(C(F)(F)F)nn5)ccc42)C3)cc1Cl` (single isomer, unassigned) [56(+), 5-(3-chloro-4-fluorophenyl)-2,5-methano-8-(6-(trifluoromethyl)pyridazin-3-yl)-2,3,4,5-tetrahydro-1H-benzo[c]azepine] as the molecule, how does the IC50 [1] read?
A: 78.6 nM

Q: And the IC50 [2]?
A: 2.4 nM

Q: And the IC50 [3]?
A: 11.4 nM

— patent publication US9045468B2, “2,5-methano- and 2,5-ethano-tetrahydrobenzazepine derivatives and use thereof to block reuptake of norepinephrine, dopamine, and serotonin” (Albany Molecular Research, Inc., priority 2010, dated 2015)
